Experimental data as given in patent US20230172204A1 (BASF SE, priority 2020, published 2023).

Columns and labels:
[1] = test system: Phakopsora pachyrhizi (F129L); assay: Protective control of soybean rust on soybeans (PHAKPA P2); type: in vivo; settings: for % PHAKPA (F129L) Disease level P2 at 4 ppm: protective P2, 4 ppm; for % PHAKPA (F129L) Disease level P2 at 4 ppm / % PHAKPA (F129L) Disease level P2 at 16 ppm: soybean rust F129L; for % PHAKPA (F129L) Disease level P2 at 16 ppm: protective P2, 16 ppm
[2] = test system: Phakopsora pachyrhizi (F129L); assay: Protective control of soybean rust on soybeans (PHAKPA P6); type: in vivo; settings: for % PHAKPA (F129L) Disease level P6 at 4 ppm: protective P6, 4 ppm; for % PHAKPA (F129L) Disease level P6 at 4 ppm / % PHAKPA (F129L) Disease level P6 at 16 ppm: soybean rust F129L; for % PHAKPA (F129L) Disease level P6 at 16 ppm: protective P6, 16 ppm; for PHAKPA (F129L) Disease level (%) P6 at 16 ppm: P6 protective, % diseased leaf area
[3] = P2 protective, % diseased leaf area

| Compound | % PHAKPA (F129L) Disease level P2 at 4 ppm [1] [%] | % PHAKPA (F129L) Disease level P2 at 16 ppm [1] [%] | % PHAKPA (F129L) Disease level P6 at 4 ppm [2] [%] | % PHAKPA (F129L) Disease level P6 at 16 ppm [2] [%] | PHAKPA (F129L) Disease level (%) P2 at 16 ppm [1, 3] [%] | PHAKPA (F129L) Disease level (%) P6 at 16 ppm [2] [%] | PHAKPA (F129L) Disease level (%) P2 at 4 ppm ([1]; P2 protective, 4 ppm, % diseased leaf area) [%] |
| --- | --- | --- | --- | --- | --- | --- | --- |
| CO/N=C(/C(=O)OC)c1cccc(C)c1CO/N=C(\C)c1cccc(C2CC2(Cl)Cl)c1 (stereo not shown) [compound 74] | 27 | 6 | 16 | 3 | – | – | – |
| CO/N=C(/C(=O)OC)c1cccc(C)c1CO/N=C(\C)c1cccc(F)c1F [compound 177] | 100 | 21 | 87 | 47 | – | – | – |
| CO/N=C(/C(=O)OC)c1cccc(C)c1CO/N=C(\C)c1ccc(F)cc1Cl [compound 256] | 50 | 18 | 70 | 20 | – | – | – |
| CNC(=O)/C(=N/OC)c1cccc(C)c1CO/N=C(\C)c1cc(C(F)(F)F)cc(F)c1F [compound 197] | 0 | 0 | 2 | 0 | – | – | – |
| CO/N=C(/C(=O)OC)c1cccc(C)c1CO/N=C(\C)c1cccc(F)c1 [Ex. 86] | 12 | 3 | 23 | 3 | 6 | 7 | – |
| CNC(=O)/C(=N/OC)c1cccc(C)c1CO/N=C(\C(C)=O)c1cccc(C(F)(F)F)c1 [compound 93] | 83 | 32 | 43 | 37 | – | – | – |
| CO/N=C(/C(=O)OC)c1cccc(C)c1CO/N=C(\C)c1cc(C(F)(F)F)cc(C(F)(F)F)c1 [compound 34] | 100 | 90 | 90 | 83 | – | – | – |
| CO/N=C(/C(=O)OC)c1cccc(C)c1CO/N=C(\C)c1ccc(Cc2ccccc2)cc1C(F)(F)F [compound 408] | 30 | 12 | 33 | 13 | – | – | – |
| CO/N=C(/C(=O)OC)c1cccc(C)c1CO/N=C(\OC)c1cccc(C)c1 [drawing 970, reference compound] | – | – | – | – | – | 57 | 83 |
| CO/N=C(/C(=O)OC)c1cccc(C)c1CO/N=C(\C)c1ccc(-c2ccc(F)cc2)cc1C(F)(F)F [compound 425] | 27 | 28 | 53 | 40 | – | – | – |
| C=Cc1cccc(/C(=N\OC)C(=O)NC)c1CO/N=C(\C)c1ccccc1 [compound 400] | 2 | 0 | 8 | 0 | – | – | – |
| COC=C(C(=O)OC)c1cccc(C)c1CON=C(C)c1ccc(OC(F)(F)F)cc1Cl [compound 463] | 6 | 0 | 3 | 0 | – | – | – |
| CC/C(=N\OCc1c(C)cccc1/C(=N\OC)C(=O)NC)c1ccccc1C(F)(F)F [compound 189] | 82 | 28 | 97 | 37 | – | – | – |
| CNC(=O)/C(=N/OC)c1cccc(C)c1CO/N=C(\C)c1ccc(F)cc1Cl [compound 262] | 63 | 1 | 47 | 4 | – | – | – |
| CNC(=O)/C(=N/OC)c1cccc(C)c1CO/N=C(\COC)c1cccc(C(F)(F)F)c1 [compound 186] | 1 | 0 | 2 | 0 | – | – | – |
| CO/C=C(/C(=O)OC)c1cccc(C)c1CO/N=C(\C)c1c(Cl)ccc(Cl)c1OC(F)(F)F [compound 444] | 100 | 47 | 83 | 53 | – | – | – |
| C=Cc1cccc(/C(=N\OC)C(=O)OC)c1CO/N=C(\C)c1cccc(C(F)(F)F)c1 [Ex. 13] | 28 | 0 | 25 | 0 | – | – | – |
| CO/N=C(/C(=O)OC)c1cccc(C)c1CO/N=C(\C)c1ccc(Cl)cc1C(F)(F)F [compound 304] | 53 | 28 | 100 | 37 | – | – | – |
| CNC(=O)/C(=N/OC)c1cccc(C)c1CO/N=C(\C)c1c(Cl)ccc(Cl)c1OC(F)(F)F [compound 441] | 100 | 43 | 97 | 50 | – | – | – |
| COC=C(C(=O)OC)c1cccc(C)c1CON=C(C)c1ccc(Cl)c(F)c1OC(F)(F)F [compound 452] | 60 | 6 | 70 | 14 | – | – | – |
| CNC(=O)/C(=N/OC)c1cccc(C)c1CO/N=C(\C)c1cc(F)ccc1Br [compound 248] | 33 | 2 | 30 | 2 | – | – | – |
| CO/N=C(/C(=O)OC)c1cccc(C)c1CO/N=C(\C)c1cc(C)cc(Cl)c1 [compound 101] | 70 | 37 | 60 | 17 | – | – | – |
| CO/N=C(/C(=O)OC)c1cccc(C)c1CO/N=C(\C)c1ccc(-c2ccccc2)cc1 [compound 111] | 28 | 8 | 46 | 10 | – | – | – |
| CNC(=O)/C(=N/OC)c1cccc(C)c1CO/N=C(\C)c1ccc(C#N)cc1C(F)(F)F [compound 424] | 100 | 27 | 97 | 50 | – | – | – |
| CNC(=O)/C(=N/OC)c1cccc(C)c1CO/N=C(\C)c1c(F)ccc(C(F)(F)F)c1F [compound 162] | 0 | 0 | 1 | 0 | – | – | – |
| CO/N=C(/C(=O)OC)c1cccc(C)c1CO/N=C(\C)c1cccc(C(C)(C)C)c1 [compound 96] | 6 | 1 | 3 | 0 | – | – | – |
| CO/N=C(/C(=O)OC)c1cccc(C)c1CO/N=C(\C)c1cccc(-c2ccccc2)c1 [compound 97] | 4 | 1 | 1 | 0 | – | – | – |
| CO/N=C(/C(=O)OC)c1ccccc1CO/N=C(\C)c1ccc(C)cc1 [reference compound] | – | – | – | – | 25 | 10 | – |
| CNC(=O)/C(=N/OC)c1cccc(C)c1CO/N=C(\C)c1cccc(/C(=N/OC)C(F)(F)F)c1 [compound 71] | 2 | 0 | 6 | 0 | – | – | – |
| CO/N=C(/C(=O)OC)c1cccc(C)c1CO/N=C(\CC1CC1)c1cccc(C(F)(F)F)c1 [compound 215] | 87 | 37 | 87 | 33 | – | – | – |
